Measured values: US7419789B2, “Method of inhibiting binding of Dengue virus to a human cell with DC-SIGN blockers” (Institut Pasteur, priority 2002, dated 2008)

System: DEN-1 virus strain FGA/NA d1d
Assay: Inhibition of DC-SIGN-mediated DEN-1 virus infection of THP/DC-SIGN cells, indirect immunofluorescence
Type: cell-based, DEN-1 virus (human monocytic THP/DC-SIGN cells)
Conditions: m.o.i. 5 AP61 FFU/cell
Procedure: Prior to infection, THP-1/DC/SIGN cells were incubated with either Mab 9D12 (dilution 1:50), Mab BD12.5 (20 μg/ml), Mab 1B10.2.6 (20 μg/ml), EDTA (5 mM), mannan (20 μg/ml), or mock-treated (control). Treated cells were infected with DEN-1 virus strain FGA/NA did (5 AP61 FFU/cell) in the presence of reagents for 2 hrs. Viral antigens were detected by indirect immunofluorescence as described in the legend of FIG. 1. The percentages of infected cells 48 h post-infection are indicated. Values represent the mean of triplicate assays ±SD.
Cells were washed once with RPMI 1640, incubated with highly purified virus in RPMI 1640 supplemented with 0.2% bovine serum albumine (BSA, pH 7.5) (Sigma) for 2 hrs at 37° C. and placed into fresh media supplemented with 2% FCS, 2 mM L-glutamine and antibiotics Peni/Strepto at 37° C. for 40 hrs.
The percentage of cells expressing viral antigen was determined using either DEN-1 virus-specific hyperimmune mouse ascites fluid (HMAF) 9801 (strain Hawaï), WN virus-specific HMAF 0801 (strain IS-98-ST1), or YF virus-specific HMAF. 9803 (strain FNV) with dilution of 1:50, by indirect immunofluorescence as previously described (Desprès et al., J. Virol., 70: 4090, 1996). […]

With mannan the “reduction of FGA/NA d1d infectivity” value (20 μg/ml) was 75%.

In the case of O=C(O)CN(CCN(CC(=O)O)CC(=O)O)CC(=O)O [EDTA], the “infectivity of DEN-1 virus in preincubated THP/DC-SIGN cells” value (EDTA 5 mM, Mab 20 μg/ml) is reported as “essentially abolished”.
